Reference: ChEMBL document CHEMBL3593201, “Isolation, Characterization, and Synthesis of the Barrettides: Disulfide-Containing Peptides from the Marine Sponge Geodia barretti” (J Nat Prod, 2015)
Converted amounts (≈) assume the structure as drawn. The source made the active and inactive calls. No cut-off for these calls is given here. Peptide text beside a SMILES is read from it.

Columns and labels:
Staphylococcus aureus [1] = assay: Antimicrobial activity against Staphylococcus aureus ATCC 29213 up to 80 uM; type: functional, organism-based
Amphibalanus improvisus [2] = assay: Anti-fouling activity against Balanus improvisus barnacle larvae assessed as settlement propensity at 6 uM incubated for 4 days (reference value: 64 +/- 8%); type: functional
Amphibalanus improvisus [3] = assay: Anti-fouling activity against Balanus improvisus barnacle larvae assessed as inhibition of settlement propensity at 6 uM incubated for 4 days; type: functional, organism-based
Amphibalanus improvisus [4] = assay: Toxicity against Balanus improvisus barnacle larvae assessed as number of dead larvae at 0.06 to 6 uM incubated for 24 hrs; type: organism-based; details: in vivo
Escherichia coli [5] = assay: Antimicrobial activity against Escherichia coli ATCC 25922 up to 80 uM; type: functional, organism-based
Amphibalanus improvisus [6] = assay: Anti-fouling activity against Balanus improvisus barnacle larvae assessed as inhibition of settlement propensity at 0.6 uM incubated for 4 days; type: functional, organism-based
Staphylococcus aureus [7] = assay: Antimicrobial activity against Staphylococcus aureus ATCC 29213; type: functional
Escherichia coli [8] = assay: Antimicrobial activity against Escherichia coli ATCC 25922; type: functional

SMILES	Activity (Staphylococcus aureus [1])	Activity (Amphibalanus improvisus [2]) [%]	inhibition (Amphibalanus improvisus [3])	Activity (Amphibalanus improvisus [4])	Activity (Escherichia coli [5])	inhibition (Amphibalanus improvisus [6])	MIC (Staphylococcus aureus [7]) [µM]	MIC (Escherichia coli [8]) [µM]
[H][C@@]12CCCN1C(=O)[C@H](CC(C)C)NC(=O)[C@]1([H])CSSC[C@]([H])(NC(=O)[C@H](Cc3ccccc3)NC(=O)[C@@H](NC(=O)[C@@H]3CCCN3C(=O)[C@H](CO)NC(=O)[C@@H](NC(=O)[C@@H](N)CC(=O)O)C(C)C)CSSC[C@@H](C(=O)N[C@@H](CC(=O)O)C(=O)N[C@@H](C)C(=O)N[C@@H](CO)C(=O)N[C@@H](CCCNC(=N)N)C(=O)NCC(=O)N[C@H](C(=O)N[C@@H](CC(N)=O)C(=O)N3CCC[C@H]3C(=O)O)[C@@H](C)O)NC(=O)[C@H](CC(N)=O)NC(=O)[C@H](CC(=O)O)NC2=O)C(=O)N[C@@H](C(C)C)C(=O)N[C@@H](CCC(=O)O)C(=O)N[C@@H](CC(=O)O)C(=O)N[C@@H](CCC(=O)O)C(=O)N[C@@]([H])([C@@H](C)O)C(=O)N[C@@H](CO)C(=O)NCC(=O)N[C@@H](C)C(=O)N[C@@H](CCCCN)C(=O)N[C@@]([H])([C@@H](C)O)C(=O)N1 (HELM PEPTIDE1{D.V.S.P.C.F.C.V.E.D.E.T.S.G.A.K.T.C.L.P.D.N.C.D.A.S.R.G.T.N.P}$PEPTIDE1,PEPTIDE1,5:R3-23:R3|PEPTIDE1,PEPTIDE1,7:R3-18:R3$$$V2.0)	inactive	8	Active	Non-toxic	inactive	–	–	–
[H][C@@]12CCCN1C(=O)[C@H](C(C)C)NC(=O)[C@]1([H])CSSC[C@]([H])(NC(=O)[C@H](Cc3ccccc3)NC(=O)[C@@H](NC(=O)[C@@H]3CCCN3C(=O)[C@H](CO)NC(=O)[C@@H](NC(=O)[C@@H](N)CC(=O)O)C(C)C)CSSC[C@@H](C(=O)N[C@@H](CC(=O)O)C(=O)N[C@@H](C)C(=O)N[C@@H](CO)C(=O)N[C@@H](CCCNC(=N)N)C(=O)NCC(=O)N[C@H](C(=O)N[C@@H](CC(N)=O)C(=O)N3CCC[C@H]3C(=O)O)[C@@H](C)O)NC(=O)[C@H](CC(N)=O)NC(=O)[C@H](CC(=O)O)NC2=O)C(=O)N[C@@H](C(C)C)C(=O)N[C@@H](CCC(=O)O)C(=O)N[C@@H](CC(=O)O)C(=O)N[C@@H](CCC(=O)O)C(=O)N[C@@]([H])([C@@H](C)O)C(=O)N[C@@H](CO)C(=O)NCC(=O)N[C@@H](C)C(=O)N[C@@H](CCCCN)C(=O)N[C@@]([H])([C@@H](C)O)C(=O)N1 (HELM PEPTIDE1{D.V.S.P.C.F.C.V.E.D.E.T.S.G.A.K.T.C.V.P.D.N.C.D.A.S.R.G.T.N.P}$PEPTIDE1,PEPTIDE1,5:R3-23:R3|PEPTIDE1,PEPTIDE1,7:R3-18:R3$$$V2.0)	inactive	15	Active	Non-toxic	inactive	Active	–	–
CC[C@H](C)[C@H](NC(=O)[C@H](CCCCN)NC(=O)[C@H](CCC(=O)O)NC(=O)[C@H](CCCCN)NC(=O)[C@H](CO)NC(=O)[C@H](CCCCN)NC(=O)[C@H](CCCNC(=N)N)NC(=O)[C@H](Cc1ccccc1)NC(=O)[C@H](Cc1ccccc1)NC(=O)[C@H](CC(=O)O)NC(=O)CNC(=O)[C@H](CC(C)C)NC(=O)[C@@H](N)CC(C)C)C(=O)NCC(=O)N[C@@H](CCCCN)C(=O)N[C@@H](CCC(=O)O)C(=O)N[C@@H](Cc1ccccc1)C(=O)N[C@@H](CCCCN)C(=O)N[C@@H](CCCNC(=N)N)C(=O)N[C@H](C(=O)N[C@H](C(=O)N[C@@H](CCC(N)=O)C(=O)N[C@@H](CCCNC(=N)N)C(=O)N[C@H](C(=O)N[C@@H](CCCCN)C(=O)N[C@@H](CC(=O)O)C(=O)N[C@@H](Cc1ccccc1)C(=O)N[C@@H](CC(C)C)C(=O)N[C@@H](CCCNC(=N)N)C(=O)N[C@@H](CC(N)=O)C(=O)N[C@@H](CC(C)C)C(=O)N[C@H](C(=O)N1CCC[C@H]1C(=O)N[C@@H](CCCNC(=N)N)C(=O)N[C@H](C(=O)N[C@@H](CCC(=O)O)C(=O)N[C@@H](CO)C(=O)O)[C@@H](C)O)C(C)C)[C@@H](C)CC)C(C)C)[C@@H](C)CC [CATHELICIDIN]	–	–	–	–	–	–	1 (≈ 4.49 µg/mL)	1 (≈ 4.49 µg/mL)
